One series concerns CYP3A4/5. Nature of the series: CYP direct inhibition in human liver microsomes. The settings on record: pooled human liver microsomes.
Series [1] deals with CYP1A2. Nature of the series: in vitro. How it is done:
(§1) The sandwich medium was removed, and the hepatocytes were treated with incubation solutions containing salidroside (1, 5, 10, and 30 µM), vehicle (0.1% DMSO), or positive inducers in triplicate for 24 h after the cultures were established. The incubation solution was aspirated and replaced with incubation solution containing the same concentrations of salidroside, vehicle, or positive inducers for an additional 24 h. The total treatment period was 48 h. After the treatment period of 48 h, the incubation solution was aspirated. Hepatocytes were washed twice with pre-warmed HBSS containing 10 mM HEPES (HBSS I) and then the remaining solution was aspirated. Hepatocytes were washed once with pre-warmed HBSS I and incubated with 140 μL of RLT (lysis buffer from RNeasy 96 Kit) supplemented with 1% β-mercaptoethanol. Plates were then stored at −70 °C in a freezer until RNA analysis. Before RNA extraction, the frozen plate was thawed, and cell lysates were transferred to 96-well plates. RNA isolation was performed using a QIAcube RNA extraction system. Reverse transcription was performed to obtain cDNA. Quantification of the selective genes by real-time quantitative polymerase chain reaction (qPCR) was performed with TaqMan universal PCR Master Mix on the Bio-rad CFX384 TouchTM Real-Time PCR System. The relative change in the mRNA level of the selected target genes induced by each test compound was expressed in relation to the vehicle control sample, and fold changes in gene expression were determined by the ΔΔCt method.
(§2) Enzyme activity (%) = PAR with compound/PAR vehicle × 100.

Series [2] has as its system CYP1A2. Put plainly: in vitro. The settings on record: CYP1A2 mRNA, 50 μM, 48 h; for fold induction at 48 h, 50 µM: human, cryopreserved human hepatocytes (sandwich culture), Mean Fold Induction. How it is done:
as §1, with “The” for “The sandwich medium was removed, and the hepatocytes were treated with incubation solutions containing salidroside (1, 5, 10, and 30 µM), vehicle (0.1% DMSO), or positive inducers in triplicate for 24 h after the cultures were established. The”

Series [3] relates to CYP2B6. Nature of the series: CYP induction by enzyme activity in cryopreserved human hepatocytes (Lot# SNP). How it is done: as §1, §2
Series [4] relates to CYP2B6. Nature of the series: in vitro. The following applies: CYP2B6 mRNA, 1000 µM, 48 h; for fold induction at 48 h, 1000 µM: human, Mean Fold Induction. The method, then:
as §1

The target in the next series is T1, OATP1B3 (Homo sapiens, UniProt Q9NPD5).
T1 sequence (Q9NPD5 1-702): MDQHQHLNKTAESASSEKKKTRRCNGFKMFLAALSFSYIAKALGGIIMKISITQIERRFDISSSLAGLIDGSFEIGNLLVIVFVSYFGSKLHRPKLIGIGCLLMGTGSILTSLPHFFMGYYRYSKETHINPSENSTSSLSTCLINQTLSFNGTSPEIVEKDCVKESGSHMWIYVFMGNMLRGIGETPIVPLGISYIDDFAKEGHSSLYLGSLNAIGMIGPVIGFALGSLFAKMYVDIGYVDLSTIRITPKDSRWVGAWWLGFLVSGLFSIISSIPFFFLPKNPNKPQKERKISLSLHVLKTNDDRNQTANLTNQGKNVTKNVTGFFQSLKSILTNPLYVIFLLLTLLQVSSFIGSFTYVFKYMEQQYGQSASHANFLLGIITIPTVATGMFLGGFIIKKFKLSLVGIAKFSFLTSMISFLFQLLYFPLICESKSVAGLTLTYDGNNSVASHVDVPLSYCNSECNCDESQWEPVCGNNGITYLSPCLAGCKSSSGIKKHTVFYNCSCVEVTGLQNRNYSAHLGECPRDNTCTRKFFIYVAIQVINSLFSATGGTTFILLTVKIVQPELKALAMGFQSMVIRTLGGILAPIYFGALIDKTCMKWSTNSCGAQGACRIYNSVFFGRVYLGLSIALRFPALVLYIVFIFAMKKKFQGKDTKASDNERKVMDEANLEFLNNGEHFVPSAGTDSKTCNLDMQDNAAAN
Put plainly: in vitro. The following applies: human. The method, then: HEK293-OATP1B1 and OATP1B3 cells were diluted to 1 × 10^6 cells/mL with DMEM supplemented with 1% non-essential amino acid (NEAA), 10% fetal bovine serum (FBS), 1% PS solution (100 U/mL penicillin-G and 100 μg/mL streptomycin), and seeded on a 96-well BioCoat™ poly-d-lysine plate at a density of 1 × 10^6 cells/mL. […] Once the cells were anchored on the plate, the cell culture was replaced with DMEM containing 10% FBS and 1% PS solution (100 U/mL penicillin-G and 100 μg/mL streptomycin solution) and cultured one day for the uptake and inhibition studies. The cell culture medium was removed from the 96-well plate, then rinsed twice with 0.1 mL/well of pre-warmed transport buffer. The transporter cells containing pre-incubation solution were pre-incubated at 37 °C for 30 min. Then the pre-incubation solution was removed and replaced with 0.1 mL/well of dosing solution containing a substrate, respectively (blank transporter buffer containing a substrate, transport buffer containing a substrate and PC, and transport buffer containing a substrate and salidroside). Then, the transporter cells were incubated at 37 °C for 2 min. After incubation, all solutions in the cells were discarded and rinsed with 0.10 mL/well of ice-cold transport buffer (4 °C) three times. […] All samples were shaken and centrifuged at 4000 rpm at 4 °C for 15 min and the supernatant was removed for future analysis by LC-MS/MS.
as §2

The target of the next series is T2, recombinant human MAO-A (Homo sapiens, UniProt P21397).
T2 sequence (P21397 1-527): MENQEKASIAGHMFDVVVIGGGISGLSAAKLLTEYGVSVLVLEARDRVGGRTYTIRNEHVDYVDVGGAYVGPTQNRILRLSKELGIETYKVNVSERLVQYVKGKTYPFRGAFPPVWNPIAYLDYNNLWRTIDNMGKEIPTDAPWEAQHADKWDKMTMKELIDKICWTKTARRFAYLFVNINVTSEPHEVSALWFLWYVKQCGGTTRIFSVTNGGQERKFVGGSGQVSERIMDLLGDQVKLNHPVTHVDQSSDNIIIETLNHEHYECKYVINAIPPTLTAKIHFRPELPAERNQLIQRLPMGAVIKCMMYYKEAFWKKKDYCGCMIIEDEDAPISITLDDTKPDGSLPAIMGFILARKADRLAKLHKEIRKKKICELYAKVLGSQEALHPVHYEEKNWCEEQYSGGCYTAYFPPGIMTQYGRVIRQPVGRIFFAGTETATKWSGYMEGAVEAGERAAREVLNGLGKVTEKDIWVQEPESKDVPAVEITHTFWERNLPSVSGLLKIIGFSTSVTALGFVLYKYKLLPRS
Nature of the series: MAO inhibition, kynuramine oxidation to 4-hydroxyquinoline. It is filed as biochemical. The following applies: substrate kynuramine (20 µM); mean of N = 2; read-out: IC50 MAO-A. The method, then: (§3) A total of 99 µL of substrate working solution was added into 1.1 mL incubation tubes and then 1 µL of the test compound/control working solution or DMSO (vehicle control) was added, mixed well, and pre-incubated at 37 °C for 5 min. MAO-A (0.005 mg/mL) and MAO-B (0.02 mg/mL) were pre-incubated in the working solution at 37 °C for 5 min. A total of 100 µL of pre-incubated MAO-A or MAO-B working solution was added to incubation tubes to start the reaction, mixed well, and incubated at 37 °C for 15 min. […] All samples were centrifuged at 4000 rpm at 4 °C for 15 min, then 100 µL supernatant with 100 µL of water was transferred for LC-MS/MS analysis.
as §2
(§4) The oxidation of kynuramine to 4-hydroxyquinoline generated was the in vitro marker reaction of MAO-A and MAO-B enzymes.

In another series the target is T3, recombinant human MAO-B (Homo sapiens, UniProt P27338).
T3 construct: purchased Corning
T3 sequence (P27338 1-520): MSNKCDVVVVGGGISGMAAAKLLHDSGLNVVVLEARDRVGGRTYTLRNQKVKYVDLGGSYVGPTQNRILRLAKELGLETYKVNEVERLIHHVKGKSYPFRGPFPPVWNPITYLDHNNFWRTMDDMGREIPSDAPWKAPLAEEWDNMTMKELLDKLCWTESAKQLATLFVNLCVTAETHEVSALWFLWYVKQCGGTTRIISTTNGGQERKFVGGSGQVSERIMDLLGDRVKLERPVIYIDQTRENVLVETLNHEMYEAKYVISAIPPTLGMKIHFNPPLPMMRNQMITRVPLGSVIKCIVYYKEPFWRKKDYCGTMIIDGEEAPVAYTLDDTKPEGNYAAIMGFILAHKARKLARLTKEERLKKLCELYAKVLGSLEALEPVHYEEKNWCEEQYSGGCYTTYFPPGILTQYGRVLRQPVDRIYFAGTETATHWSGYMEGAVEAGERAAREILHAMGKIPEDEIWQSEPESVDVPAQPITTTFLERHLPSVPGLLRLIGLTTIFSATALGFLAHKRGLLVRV
Described as above. It is filed as biochemical. The following applies: substrate kynuramine (20 µM); mean of N = 2. The method, then: as §3, §2, §4

A further series concerns MAO-B. Further details: method as in PMID 19168123. The following applies: isolated compound at 10 µM; cited from earlier work.

The structures appear in SMILES notation. Where two headings read alike, the source gives them in different places.

This is an account of results in publication PMC10489644, “In Vitro Evaluation of the Potential for Drug Interactions by Salidroside” (Nutrients, 2023).

For `CC(=O)N1CCN(c2ccc(OCC3COC(Cn4ccnc4)(c4ccc(Cl)cc4Cl)O3)cc2)CC1` (stereo not shown) [Ketoconazole, ketoconazole], the IC50 at 10 min was found to be 0.027 µM in the series with CYP3A4/5 (probe midazolam) and 0.0183 µM in the series on CYP3A4/5 (probe testosterone).
Regarding `COc1ccc2[nH]c([S+]([O-])Cc3ncc(C)c(OC)c3C)nc2c1` (stereo not shown) [OME, omeprazole, reference compound], the fold induction at 48 h, 50 µM in the series on CYP1A2 [1] is 3.55; in the series on CYP1A2 [2] (Lot# 1911442) it was 10; with CYP1A2 [2] (Lot# MWB) it was 24; in the series with CYP1A2 [2] (Lot# RFM) it was 19. Further, the “% of Positive Control” value in the series with CYP1A2 [1] (CYP1A2 activity, Lot# SNP, 50 µM) is reported as 100%. Moreover, the “% Positive Control” value in the series with CYP1A2 [2] (Lot# 1911442), in the series with CYP1A2 [2] (Lot# MWB) and in the series on CYP1A2 [2] (Lot# RFM) was 100% in each case.
Turning to `CCC1(c2ccccc2)C(=O)NC(=O)NC1=O` [PB, phenobarbital, reference compound], the “% of Positive Control” value in the series with CYP2B6 [3] (CYP2B6 activity, Lot# SNP, 1000 µM) is listed as 100%. In addition, the fold induction at 48 h, 1000 µM in the series with CYP2B6 [3] (human) was found to be 5.69; in the series with CYP2B6 [4] (Lot# 1911442), 13.6; in the series with CYP2B6 [4] (Lot# MWB), 14.7; in the series with CYP2B6 [4] (Lot# RFM), 8.81. Besides, the “% Positive Control” value with CYP2B6 [4] (Lot# 1911442), with CYP2B6 [4] (Lot# MWB) and in the series with CYP2B6 [4] (Lot# RFM) was 100% each time.
For `CO[C@H]1/C=C/O[C@@]2(C)Oc3c(C)c(O)c4c(O)c(c(/C=N/N5CCN(C)CC5)c(O)c4c3C2=O)NC(=O)/C(C)=C\C=C\[C@H](C)[C@H](O)[C@@H](C)[C@@H](O)[C@@H](C)[C@H](OC(C)=O)[C@@H]1C` [RIF, rifampicin, reference compound], the IC50 at 2 min on OATP1B3 is 1.54 µM.
Turning to `Cc1oncc1C(=O)Nc1ccc(C(F)(F)F)cc1` [leflunomide, reference compound], the concentration for half-maximal inhibition (IC50) was found to be 13.8 µM at recombinant human MAO-A and 7.4 µM on recombinant human MAO-B.
With `CC(C)=CC[C@H](O)/C(C)=C/CO[C@@H]1O[C@H](CO)[C@@H](O)[C@H](O)[C@H]1O` [rosirdin, reference compound], the “inhibition of MAO-B” value with MAO-B is 83.8%.
